Data taken from ChEMBL document CHEMBL1144453, “Ligand binding analysis for human alpha5beta1 integrin: strategies for designing new alpha5beta1 integrin antagonists” (J Med Chem, 2005).

What follows are compounds tested against Integrin alpha-V/beta-3 (Homo sapiens, UniProt P05106+P06756) (assay: Inhibition of fibrinogen binding to alphaV-beta3 integrin receptor).
Assay type: protein-complex assay

Sequence of Integrin alpha-V/beta-3 (P05106 27-788 limits assumed): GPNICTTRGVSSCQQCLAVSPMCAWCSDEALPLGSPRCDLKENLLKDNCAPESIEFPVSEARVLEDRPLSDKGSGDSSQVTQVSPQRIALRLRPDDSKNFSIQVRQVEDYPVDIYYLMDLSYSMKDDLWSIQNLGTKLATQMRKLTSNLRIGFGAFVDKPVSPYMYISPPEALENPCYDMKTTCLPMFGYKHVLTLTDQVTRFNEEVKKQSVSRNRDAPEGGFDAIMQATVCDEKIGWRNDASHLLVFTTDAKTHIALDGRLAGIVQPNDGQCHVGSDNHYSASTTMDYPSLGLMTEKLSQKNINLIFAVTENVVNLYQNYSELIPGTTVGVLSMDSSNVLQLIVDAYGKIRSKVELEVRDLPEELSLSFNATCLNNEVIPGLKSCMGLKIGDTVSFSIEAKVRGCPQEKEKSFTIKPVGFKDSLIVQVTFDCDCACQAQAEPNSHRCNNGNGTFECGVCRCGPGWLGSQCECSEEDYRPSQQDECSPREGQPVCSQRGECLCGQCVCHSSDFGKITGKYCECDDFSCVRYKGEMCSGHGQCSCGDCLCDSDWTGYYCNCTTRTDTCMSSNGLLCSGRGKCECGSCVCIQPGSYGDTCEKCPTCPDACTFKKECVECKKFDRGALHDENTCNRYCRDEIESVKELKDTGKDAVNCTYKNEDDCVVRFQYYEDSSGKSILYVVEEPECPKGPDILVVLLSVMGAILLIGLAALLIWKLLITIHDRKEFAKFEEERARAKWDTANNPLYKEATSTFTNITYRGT
Sequence of Integrin alpha-V/beta-3 (P06756 31-889 limits assumed): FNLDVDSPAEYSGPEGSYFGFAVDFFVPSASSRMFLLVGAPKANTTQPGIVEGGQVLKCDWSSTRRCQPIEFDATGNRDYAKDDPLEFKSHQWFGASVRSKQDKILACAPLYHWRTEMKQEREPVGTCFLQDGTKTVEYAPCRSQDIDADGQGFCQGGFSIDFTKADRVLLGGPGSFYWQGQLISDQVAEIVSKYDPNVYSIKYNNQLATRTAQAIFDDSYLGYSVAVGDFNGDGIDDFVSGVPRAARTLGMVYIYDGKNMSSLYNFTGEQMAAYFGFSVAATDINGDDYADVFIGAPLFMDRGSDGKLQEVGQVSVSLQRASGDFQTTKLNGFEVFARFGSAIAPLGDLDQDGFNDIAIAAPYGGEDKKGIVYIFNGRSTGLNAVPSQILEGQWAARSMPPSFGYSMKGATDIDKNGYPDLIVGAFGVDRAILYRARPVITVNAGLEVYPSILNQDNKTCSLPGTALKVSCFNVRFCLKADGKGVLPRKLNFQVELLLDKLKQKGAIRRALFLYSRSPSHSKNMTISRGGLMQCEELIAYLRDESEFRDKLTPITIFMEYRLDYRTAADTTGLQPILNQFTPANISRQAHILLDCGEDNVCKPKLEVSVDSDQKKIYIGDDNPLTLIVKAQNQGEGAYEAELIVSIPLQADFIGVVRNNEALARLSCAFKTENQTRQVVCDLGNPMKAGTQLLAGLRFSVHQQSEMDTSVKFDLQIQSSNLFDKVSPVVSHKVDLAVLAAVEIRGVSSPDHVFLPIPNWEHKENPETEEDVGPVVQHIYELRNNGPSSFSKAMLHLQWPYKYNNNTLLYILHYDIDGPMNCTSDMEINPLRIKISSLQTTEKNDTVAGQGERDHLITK
Sequence of Integrin alpha-V/beta-3 (P06756 891-1048 limits assumed): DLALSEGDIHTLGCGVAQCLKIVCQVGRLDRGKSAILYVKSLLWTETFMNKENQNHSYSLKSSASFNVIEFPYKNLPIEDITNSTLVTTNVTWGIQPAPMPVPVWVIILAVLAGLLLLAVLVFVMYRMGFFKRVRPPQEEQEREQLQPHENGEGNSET

SMILES	IC50 [nM]
CCCCOC(=O)N1C[C@@]2(CC(C(=O)NC[C@H](NS(=O)(=O)c3c(C)cc(C)cc3C)C(=O)O)=NO2)C[C@H]1CNc1nc2ccccc2[nH]1	87
Cc1cc(C)c(S(=O)(=O)N[C@@H](CNC(=O)C2=NO[C@]3(CN[C@H](CNc4ncc[nH]4)C3)C2)C(=O)O)c(C)c1	180
CCCCOC(=O)N1C[C@@]2(CC(C(=O)NC[C@H](NS(=O)(=O)c3c(C)cc(C)cc3C)C(=O)O)=NO2)C[C@H]1CNc1ncc[nH]1	130
COC(=O)N1C[C@@]2(CC(C(=O)NC[C@H](NS(=O)(=O)c3c(C)cc(C)cc3C)C(=O)O)=NO2)C[C@H]1CNc1ncc[nH]1	57

The remaining lines, values ahead:

IC50 [nM]	SMILES
49	Cc1cc(C)c(S(=O)(=O)N[C@@H](CNC(=O)C2=NO[C@]3(C2)C[C@@H](CNc2ccccn2)N(C(=O)OCc2ccccc2)C3)C(=O)O)c(C)c1
41	Cc1cc(C)c(S(=O)(=O)N[C@@H](CNC(=O)C2=NO[C@]3(C2)C[C@@H](CNc2ncc[nH]2)N(C(=O)OCc2ccccc2)C3)C(=O)O)c(C)c1
32	Cc1cc(C)c(S(=O)(=O)N[C@@H](CNC(=O)C2=NO[C@]3(C2)C[C@@H](CNc2ncc[nH]2)N(C(=O)OCc2cccnc2)C3)C(=O)O)c(C)c1
57	Cc1cc(C)c(S(=O)(=O)N[C@@H](CNC(=O)C2=NO[C@]3(C2)C[C@@H](CNC2NC=CN2)N(C(=O)OCc2ccccc2)C3)C(=O)O)c(C)c1
34	COC(=O)N1C[C@@]2(CC(C(=O)NC[C@H](NS(=O)(=O)c3c(C)cc(C)cc3C)C(=O)O)=NO2)C[C@H]1CNc1nc2ccccc2[nH]1
> 1000	Cc1cc(C)c(S(=O)(=O)N[C@@H](CNC(=O)C2=NOC3(C2)C[C@@H](CNC2NC=CN2)N(C(=O)OCc2ccccc2)C3)C(=O)O)c(C)c1 (single isomer, unassigned)

The compounds below were run against Integrin alpha-5/beta-1 (Homo sapiens, UniProt P05556+P08648) (assay: Inhibition of alpha5-beta1 integrin receptor in ELISA).
Assay type: protein-complex assay

Sequence of Integrin alpha-5/beta-1 (P05556 21-798 limits assumed): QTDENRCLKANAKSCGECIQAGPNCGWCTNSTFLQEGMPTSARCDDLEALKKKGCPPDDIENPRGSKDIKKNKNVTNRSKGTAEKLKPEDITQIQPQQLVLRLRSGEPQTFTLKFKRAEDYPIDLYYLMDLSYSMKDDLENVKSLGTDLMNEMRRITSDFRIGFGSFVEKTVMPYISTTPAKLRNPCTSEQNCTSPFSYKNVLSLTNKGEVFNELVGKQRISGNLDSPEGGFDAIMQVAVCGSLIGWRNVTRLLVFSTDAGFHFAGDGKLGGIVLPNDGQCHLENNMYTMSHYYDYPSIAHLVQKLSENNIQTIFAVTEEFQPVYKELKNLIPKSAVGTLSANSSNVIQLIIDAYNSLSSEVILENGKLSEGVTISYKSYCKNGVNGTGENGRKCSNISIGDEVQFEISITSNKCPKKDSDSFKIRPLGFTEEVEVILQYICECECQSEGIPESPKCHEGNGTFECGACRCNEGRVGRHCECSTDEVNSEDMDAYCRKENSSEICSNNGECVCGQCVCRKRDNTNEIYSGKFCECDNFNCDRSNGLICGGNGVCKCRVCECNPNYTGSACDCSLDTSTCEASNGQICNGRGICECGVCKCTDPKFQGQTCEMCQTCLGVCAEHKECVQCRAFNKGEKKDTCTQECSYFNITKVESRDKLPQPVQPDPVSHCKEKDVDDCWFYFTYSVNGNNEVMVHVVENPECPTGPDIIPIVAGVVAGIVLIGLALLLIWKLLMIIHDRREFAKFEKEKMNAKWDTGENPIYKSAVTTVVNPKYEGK
Sequence of Integrin alpha-5/beta-1 (P08648 42-894 limits assumed): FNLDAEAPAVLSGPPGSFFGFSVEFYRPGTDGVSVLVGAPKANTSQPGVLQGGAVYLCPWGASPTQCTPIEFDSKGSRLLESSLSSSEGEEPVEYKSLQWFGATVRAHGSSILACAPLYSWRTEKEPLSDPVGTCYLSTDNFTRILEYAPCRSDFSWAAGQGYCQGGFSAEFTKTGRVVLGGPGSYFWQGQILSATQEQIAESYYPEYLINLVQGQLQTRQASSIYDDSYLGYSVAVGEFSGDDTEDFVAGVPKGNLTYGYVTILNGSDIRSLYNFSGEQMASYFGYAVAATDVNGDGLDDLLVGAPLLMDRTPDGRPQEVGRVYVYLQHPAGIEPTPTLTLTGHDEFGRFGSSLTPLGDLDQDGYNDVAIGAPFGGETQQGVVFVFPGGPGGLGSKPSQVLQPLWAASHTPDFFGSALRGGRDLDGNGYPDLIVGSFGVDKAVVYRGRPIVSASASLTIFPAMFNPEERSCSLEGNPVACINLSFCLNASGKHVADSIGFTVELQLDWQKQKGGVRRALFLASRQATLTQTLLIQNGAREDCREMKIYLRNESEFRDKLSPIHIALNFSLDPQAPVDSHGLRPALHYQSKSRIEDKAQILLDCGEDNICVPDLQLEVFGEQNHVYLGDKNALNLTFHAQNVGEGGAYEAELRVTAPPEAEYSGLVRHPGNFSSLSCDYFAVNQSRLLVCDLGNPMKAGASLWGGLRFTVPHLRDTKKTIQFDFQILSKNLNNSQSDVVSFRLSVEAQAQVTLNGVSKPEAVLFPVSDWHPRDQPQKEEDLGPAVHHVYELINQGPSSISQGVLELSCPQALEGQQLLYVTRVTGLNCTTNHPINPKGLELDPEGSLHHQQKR
Sequence of Integrin alpha-5/beta-1 (P08648 895-1049 limits assumed): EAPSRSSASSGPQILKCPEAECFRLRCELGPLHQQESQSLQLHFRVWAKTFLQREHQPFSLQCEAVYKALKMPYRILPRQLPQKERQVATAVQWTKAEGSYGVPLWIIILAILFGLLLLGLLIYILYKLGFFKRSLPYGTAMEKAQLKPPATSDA

IC50 [nM]	SMILES
13	Cc1cc(C)c(S(=O)(=O)N[C@@H](CNC(=O)C2=NO[C@]3(C2)C[C@@H](CNC2NC=CN2)N(C(=O)OCc2ccccc2)C3)C(=O)O)c(C)c1
1200	Cc1cc(C)c(S(=O)(=O)N[C@@H](CNC(=O)C2=NOC3(C2)C[C@@H](CNC2NC=CN2)N(C(=O)OCc2ccccc2)C3)C(=O)O)c(C)c1 (single isomer, unassigned)

Each compound was assayed against Integrin alpha-IIb/beta-3 (Homo sapiens, UniProt P05106+P08514) (assay: Inhibition of alpha IIb beta3 integrin receptor in human platelet rich plasma).
Sequence of Integrin alpha-IIb/beta-3 (P05106 27-788 limits assumed): as the sequence (P05106 27-788 limits assumed) above
Sequence of Integrin alpha-IIb/beta-3 (P08514 32-887 limits assumed): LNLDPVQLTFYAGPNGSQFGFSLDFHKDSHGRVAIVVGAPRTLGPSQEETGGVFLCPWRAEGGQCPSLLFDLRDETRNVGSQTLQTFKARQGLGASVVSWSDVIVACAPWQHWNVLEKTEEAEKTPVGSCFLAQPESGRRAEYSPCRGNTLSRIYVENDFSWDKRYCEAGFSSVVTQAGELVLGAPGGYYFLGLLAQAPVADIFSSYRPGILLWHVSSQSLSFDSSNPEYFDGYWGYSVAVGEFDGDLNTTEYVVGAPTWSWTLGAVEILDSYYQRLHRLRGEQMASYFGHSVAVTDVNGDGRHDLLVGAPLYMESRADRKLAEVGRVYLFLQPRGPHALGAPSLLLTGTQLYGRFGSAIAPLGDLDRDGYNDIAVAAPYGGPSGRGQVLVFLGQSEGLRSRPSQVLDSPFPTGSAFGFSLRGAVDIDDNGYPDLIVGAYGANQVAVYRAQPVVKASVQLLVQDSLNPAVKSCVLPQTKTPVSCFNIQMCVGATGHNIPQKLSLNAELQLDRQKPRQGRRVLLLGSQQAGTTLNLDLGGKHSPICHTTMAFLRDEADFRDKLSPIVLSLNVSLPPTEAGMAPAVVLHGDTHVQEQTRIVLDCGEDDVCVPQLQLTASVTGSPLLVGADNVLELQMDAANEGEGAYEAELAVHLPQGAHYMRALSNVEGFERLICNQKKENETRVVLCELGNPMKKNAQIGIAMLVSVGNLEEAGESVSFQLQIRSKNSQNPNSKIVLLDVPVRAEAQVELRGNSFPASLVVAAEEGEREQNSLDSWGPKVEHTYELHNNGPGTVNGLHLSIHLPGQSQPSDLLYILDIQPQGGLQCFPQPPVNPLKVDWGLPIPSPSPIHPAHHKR
Sequence of Integrin alpha-IIb/beta-3 (P08514 891-1039 limits assumed): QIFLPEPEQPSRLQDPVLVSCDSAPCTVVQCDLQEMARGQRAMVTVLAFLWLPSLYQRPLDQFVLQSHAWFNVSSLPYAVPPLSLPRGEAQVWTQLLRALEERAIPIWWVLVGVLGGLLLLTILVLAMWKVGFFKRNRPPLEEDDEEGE

SMILES	IC50 [µM]
CCCCOC(=O)N1C[C@@]2(CC(C(=O)NC[C@H](NS(=O)(=O)c3c(C)cc(C)cc3C)C(=O)O)=NO2)C[C@H]1CNc1nc2ccccc2[nH]1	> 100
Cc1cc(C)c(S(=O)(=O)N[C@@H](CNC(=O)C2=NO[C@]3(CN[C@H](CNc4ncc[nH]4)C3)C2)C(=O)O)c(C)c1	1.4
CCCCOC(=O)N1C[C@@]2(CC(C(=O)NC[C@H](NS(=O)(=O)c3c(C)cc(C)cc3C)C(=O)O)=NO2)C[C@H]1CNc1ncc[nH]1	11
COC(=O)N1C[C@@]2(CC(C(=O)NC[C@H](NS(=O)(=O)c3c(C)cc(C)cc3C)C(=O)O)=NO2)C[C@H]1CNc1ncc[nH]1	7.3

Next, values leading:

IC50 [µM]	SMILES
> 100	Cc1cc(C)c(S(=O)(=O)N[C@@H](CNC(=O)C2=NO[C@]3(C2)C[C@@H](CNc2ccccn2)N(C(=O)OCc2ccccc2)C3)C(=O)O)c(C)c1
34	Cc1cc(C)c(S(=O)(=O)N[C@@H](CNC(=O)C2=NO[C@]3(C2)C[C@@H](CNc2ncc[nH]2)N(C(=O)OCc2ccccc2)C3)C(=O)O)c(C)c1
5.6	Cc1cc(C)c(S(=O)(=O)N[C@@H](CNC(=O)C2=NO[C@]3(C2)C[C@@H](CNc2ncc[nH]2)N(C(=O)OCc2cccnc2)C3)C(=O)O)c(C)c1
7.3	Cc1cc(C)c(S(=O)(=O)N[C@@H](CNC(=O)C2=NO[C@]3(C2)C[C@@H](CNC2NC=CN2)N(C(=O)OCc2ccccc2)C3)C(=O)O)c(C)c1
> 100	COC(=O)N1C[C@@]2(CC(C(=O)NC[C@H](NS(=O)(=O)c3c(C)cc(C)cc3C)C(=O)O)=NO2)C[C@H]1CNc1nc2ccccc2[nH]1
9.2	Cc1cc(C)c(S(=O)(=O)N[C@@H](CNC(=O)C2=NOC3(C2)C[C@@H](CNC2NC=CN2)N(C(=O)OCc2ccccc2)C3)C(=O)O)c(C)c1 (single isomer, unassigned)
